Laboratory results as given in ChEMBL document CHEMBL5614402, “Discovery of novel pyrazolo[1,5-a]pyrimidine derivatives as potent reversal agents against ABCB1-mediated multidrug resistance” (Eur J Med Chem, 2024).
Active and inactive are the calls of the source. No cut-off for these calls is given here.

Columns and labels:
[1] = tested on: NCI/ADR-RES; assay: Antiproliferative activity against human MCF7ADR cells incubated for 72 hrs by MTT assay; type: functional, cell-based
[2] = tested on: NCI/ADR-RES; assay: Reversal of paclitaxel resistance in human MCF7ADR cells assessed as reversal fold by measuring ratio of paclitaxel IC50 to paclitaxel IC50 in presence of test compound at 5 uM incubated for 72 hrs by MTT assay; type: functional
[3] = tested on: NCI/ADR-RES; assay: Reversal of paclitaxel resistance in human MCF7ADR cells assessed as reduction in paclitaxel IC50 at 5 uM pretreated with compound for 4 hrs followed by paclitaxel addition and measured after 72 hrs by MTT assay (reference value: 6.68 +/- 0.35 microM); type: functional, cell-based
[4] = tested on: MCF7; assay: Antiproliferative activity against human MCF7 cells assessed as survival rate at 5 uM incubated for 72 hrs by MTT assay; type: functional; conditions: read-out: Survival
[5] = tested on: NCI/ADR-RES; assay: Antiproliferative activity against human MCF7ADR cells assessed as survival rate at 5 uM incubated for 72 hrs by MTT assay; type: functional; conditions: read-out: Survival
[6] = tested on: MCF7; assay: Antiproliferative activity against human MCF7 cells incubated for 72 hrs by MTT assay; type: functional, cell-based; conditions: MCF7, 72 h
[7] = tested on: NCI/ADR-RES; assay: Induction of apoptosis in human MCF7ADR cells assessed as necrotic cells at 10 nM by Annexin V-FITC and propidium iodide staining based flow cytometry analysis (reference value: 3.14%); type: functional
[8] = target: Tubulin (Homo sapiens) (UniProt P68371+Q9H4B7+P0DPH7+P68366+Q13509+Q71U36+P04350+Q3ZCM7+P07437+P68363+Q9BQE3+Q6PEY2+Q13885+Q9BVA1+Q9BUF5); assay: Inhibition of tubulin depolymerization in human MCF7ADR cells assessed as change in microtubule morphology at 10 nM incubated for 72 hrs; type: cell-based
[9] = tested on: NCI/ADR-RES; assay: Induction of apoptosis in human MCF7ADR cells assessed as early apoptotic cells at 10 nM by Annexin V-FITC and propidium iodide staining based flow cytometry analysis (reference value: 3.87%); type: functional
[10] = tested on: NCI/ADR-RES; assay: Induction of apoptosis in human MCF7ADR cells assessed as late apoptotic cells at 10 nM by Annexin V-FITC and propidium iodide staining based flow cytometry analysis (reference value: 7.24%); type: functional
[11] = tested on: NCI/ADR-RES; assay: Induction of apoptosis in human MCF7ADR cells assessed as viable cells at 10 nM by Annexin V-FITC and propidium iodide staining based flow cytometry analysis (reference value: 85.75%); type: functional; conditions: read-out: Activity
[12] = tested on: MCF7; assay: Reversal of paclitaxel resistance in human MCF7 cells assessed as reduction in paclitaxel IC50 at 10 uM pretreated with compound for 4 hrs followed by paclitaxel addition and measured after 72 hrs by MTT assay (reference value: 2.60 +/- 0.36 nM); type: functional, cell-based
[13] = tested on: MCF7; assay: Reversal of paclitaxel resistance in human MCF7 cells assessed as reduction in paclitaxel IC50 at 5 uM pretreated with compound for 4 hrs followed by paclitaxel addition and measured after 72 hrs by MTT assay (reference value: 2.60 +/- 0.36 nM); type: functional, cell-based
[14] = tested on: NCI/ADR-RES; assay: Reversal of paclitaxel resistance in human MCF7ADR cells assessed as reversal fold by measuring ratio of paclitaxel IC50 to paclitaxel IC50 in presence of test compound at 10 uM incubated for 72 hrs by MTT assay; type: functional
[15] = tested on: NCI/ADR-RES; assay: Reversal of paclitaxel resistance in human MCF7ADR cells assessed as reduction in paclitaxel IC50 at 10 uM pretreated with compound for 4 hrs followed by paclitaxel addition and measured after 72 hrs by MTT assay (reference value: 6.68 +/- 0.35 microM); type: functional, cell-based
[16] = tested on: MCF7; assay: Reversal of paclitaxel resistance in human MCF7 cells assessed as reversal fold by measuring ratio of paclitaxel IC50 to paclitaxel IC50 in presence of test compound at 10 uM incubated for 72 hrs by MTT assay; type: functional
[17] = tested on: MCF7; assay: Reversal of paclitaxel resistance in human MCF7 cells assessed as reversal fold by measuring ratio of paclitaxel IC50 to paclitaxel IC50 in presence of test compound at 5 uM incubated for 72 hrs by MTT assay; type: functional

inhibition [8] | Structure (SMILES) | IC50 [1] | Ratio [2] | IC50 [3] | viability at 5 µM [4] | viability at 5 µM [5] | IC50 [6] | Activity [7] | Activity [9] | Activity [10] | viability at 0.01 µM [11] | IC50 [12] | IC50 [13] | Ratio [14] | IC50 [15] | Ratio [16] | Ratio [17]
– | COc1ccc(-c2c(C)nc3cc(C#N)nn3c2-c2cc(OC)c(OC)c(OC)c2)cc1 | > 20 µM | 10.77 | 0.62 µM | 93.9% | 90.6% | > 20 µM | – | – | – | – | – | – | – | – | – | –
– | CCc1cc2nc(C)c(-c3ccc(OC)cc3)c(-c3cc(OC)c(OC)c(OC)c3)n2n1 | > 20 µM | 27.83 | 0.24 µM | > 99% | > 99% | > 20 µM | – | – | – | – | – | – | – | – | – | –
– | COc1cc(-c2c(-c3ccc(Br)cc3)c(C)nc3cc(-c4cccs4)nn23)cc(OC)c1OC | > 20 µM | 139.16 | 0.048 µM | 94.8% | 94.2% | 14.4 µM | – | – | – | – | – | – | – | – | – | –
– | COc1cc(-c2c(-c3ccc(Br)cc3)c(C)nc3cc(-c4ccco4)nn23)cc(OC)c1OC | > 20 µM | 1.14 | 5.86 µM | 94.5% | 93.6% | > 20 µM | – | – | – | – | – | – | – | – | – | –
– | COc1ccc(-c2c(C)nc3ccnn3c2-c2cc(OC)c(OC)c(OC)c2)cc1OC | > 20 µM | 2.84 | 2.35 µM | > 99% | > 99% | > 20 µM | – | – | – | – | – | – | – | – | – | –
– | COc1cc(-c2c(-c3ccc(F)cc3)c(C)nc3cc(-c4ccco4)nn23)cc(OC)c1OC | > 20 µM | 37.11 | 0.18 µM | 91.6% | 93.8% | > 20 µM | – | – | – | – | – | – | – | – | – | –
– | COc1ccc(-c2c(C)nc3ccnn3c2-c2cc(OC)c(OC)c(OC)c2)cc1 | > 20 µM | 2.14 | 3.12 µM | > 99% | > 99% | > 20 µM | – | – | – | – | – | – | – | – | – | –
– | COc1ccc(-c2c(C)nc3cc(Br)nn3c2-c2cc(OC)c(OC)c(OC)c2)cc1 | > 20 µM | 4.77 | 1.4 µM | 95.4% | 91.2% | > 20 µM | – | – | – | – | – | – | – | – | – | –
– | COc1ccc(-c2c(C)nc3cc(-c4cccs4)nn3c2-c2cc(OC)c(OC)c(OC)c2)cc1OC | > 20 µM | 215.48 | 0.031 µM | 94.1% | 94.6% | > 20 µM | – | – | – | – | – | – | – | – | – | –
– | COc1ccc(-c2c(C)nc3cc(-c4ccco4)nn3c2-c2cc(OC)c(OC)c(OC)c2)cc1 | > 20 µM | 66.8 | 0.1 µM | 90.8% | 93.1% | 9.53 µM | – | – | – | – | – | – | – | – | – | –
– | COc1ccc(-c2c(C)nc3cc(C4CC4)nn3c2-c2cc(OC)c(OC)c(OC)c2)cc1 | > 20 µM | 51.28 | 0.12 µM | > 99% | 95.1% | > 20 µM | – | – | – | – | – | – | – | – | – | –
inactive | CC(=O)O[C@H]1C(=O)[C@@]2(C)[C@H]([C@H](OC(=O)c3ccccc3)[C@]3(O)C[C@H](OC(=O)[C@H](O)[C@@H](NC(=O)c4ccccc4)c4ccccc4)C(C)=C1C3(C)C)[C@]1(OC(C)=O)CO[C@@H]1C[C@@H]2O [PACLITAXEL] | – | – | – | – | – | – | 2.4% | 4.93% | 6.48% | 86.2% | – | – | – | – | – | –
– | COc1cc(-c2c(C)nc3cc(C4CC4)nn3c2-c2cc(OC)c(OC)c(OC)c2)cc(OC)c1OC | > 20 µM | 66.8 | 0.1 µM | 95.6% | 90.5% | > 20 µM | – | – | – | – | – | – | – | – | – | –
– | COc1ccc(-c2c(C)nc3cc(C)nn3c2-c2cc(OC)c(OC)c(OC)c2)cc1 | > 20 µM | 8.14 | 0.82 µM | > 99% | 95.2% | > 20 µM | – | – | – | – | – | – | – | – | – | –
– | COc1ccc(-c2c(C)nc3cc(-c4ccccc4)nn3c2-c2cc(OC)c(OC)c(OC)c2)cc1 | > 20 µM | 151.81 | 0.048 µM | 90.2% | 89.2% | 7.94 µM | – | – | – | – | – | – | – | – | – | –
– | COc1ccc(-c2c(C)nc3cc(-c4cccs4)nn3c2-c2cc(OC)c(OC)c(OC)c2)cc1 | > 20 µM | 136.32 | 0.049 µM | 93.6% | 85.1% | > 20 µM | – | – | – | – | – | – | – | – | – | –
– | COc1cc(-c2c(-c3ccc(Cl)cc3)c(C)nc3cc(-c4ccco4)nn23)cc(OC)c1OC | > 20 µM | 1.55 | 4.3 µM | 95.8% | 94.7% | > 20 µM | – | – | – | – | – | – | – | – | – | –
– | COc1ccc(-c2c(C)nc3cc(-c4ccccc4)nn3c2-c2cc(OC)c(OC)c(OC)c2)cc1OC | > 20 µM | 139.16 | 0.048 µM | 92.7% | 89.2% | > 20 µM | – | – | – | – | – | – | – | – | – | –
– | COc1cc(-c2c(C)nc3cc(-c4ccccc4)nn3c2-c2cc(OC)c(OC)c(OC)c2)cc(OC)c1OC | > 20 µM | 222.66 | 0.03 µM | 96.2% | 93.5% | > 20 µM | – | – | – | – | – | – | – | – | – | –
– | COc1ccc(CCN(C)CCCC(C#N)(c2ccc(OC)c(OC)c2)C(C)C)cc1OC (stereo not drawn) [VERAPAMIL] | > 20 µM | 39.29 | 0.17 µM | > 99% | > 99% | > 20 µM | – | – | – | – | 0.00268 µM | 0.00102 µM | 96.11 | 0.0695 µM | 0.97 | 2.55
– | COc1ccc(-c2c(C)nc3cc(-c4ccco4)nn3c2-c2cc(OC)c(OC)c(OC)c2)cc1OC | > 20 µM | 76.78 | 0.087 µM | 92.4% | 97.1% | > 20 µM | – | – | – | – | – | – | – | – | – | –
– | COc1cc(-c2c(C)nc3cc(C)nn3c2-c2cc(OC)c(OC)c(OC)c2)cc(OC)c1OC | > 20 µM | 14.52 | 0.46 µM | 94.4% | 96.6% | > 20 µM | – | – | – | – | – | – | – | – | – | –
– | COc1cc(-c2c(-c3ccc(Cl)cc3)c(C)nc3cc(-c4ccccc4)nn23)cc(OC)c1OC | > 20 µM | 90.27 | 0.074 µM | 94.2% | 90.3% | > 20 µM | – | – | – | – | – | – | – | – | – | –
– | COc1cc(-c2c(-c3ccc(Br)cc3)c(C)nc3cc(-c4ccccc4)nn23)cc(OC)c1OC | > 20 µM | 126.03 | 0.053 µM | 95.2% | 95.1% | > 20 µM | – | – | – | – | – | – | – | – | – | –
– | COc1cc(-c2c(C)nc3ccnn3c2-c2cc(OC)c(OC)c(OC)c2)cc(OC)c1OC | > 20 µM | 3.15 | 2.12 µM | > 99% | > 99% | > 20 µM | – | – | – | – | – | – | – | – | – | –
– | COc1cc(-c2c(C)nc3cc(-c4ccco4)nn3c2-c2cc(OC)c(OC)c(OC)c2)cc(OC)c1OC | > 20 µM | 151.81 | 0.044 µM | 95.1% | 89.9% | > 20 µM | – | – | – | – | – | – | – | – | – | –
– | COc1cc(-c2c(-c3ccc(F)cc3)c(C)nc3cc(-c4cccs4)nn23)cc(OC)c1OC | > 20 µM | 55.67 | 0.12 µM | 95.6% | 90.7% | > 20 µM | – | – | – | – | – | – | – | – | – | –
– | COc1cc(-c2c(-c3ccc(Cl)cc3)c(C)nc3cc(-c4cccs4)nn23)cc(OC)c1OC | > 20 µM | 81.46 | 0.082 µM | 98.2% | 94.2% | > 20 µM | – | – | – | – | – | – | – | – | – | –
